We go through 5 molecules from US12325677B2, “Carboxylic acid-type lipid, and lipid particle and lipid membrane each comprising carboxylic acid-type lipid” (Toray Industries, Inc., priority 2018, dated 2025).

The nature of data set [1]: Thickness of lipid membrane from SEM observation image. It is filed as physicochemical. The note with it: lipid supported on fiber sheet base (hemostatic materials E1 to E4), SEM ×5,000. The method, then: The thickness of the lipid membrane is preferably 10 to 1,000 nm, more preferably 30 to 500 nm, and still more preferably 60 to 240 nm. The method of measuring the lipid membrane is as follows. The lipid membrane is observed with a scanning electron microscope (SEM). The thickness of five points optionally selected in the SEM observation image is measured, and the mean is regarded as the thickness of the lipid membrane.
An SEM observation image (×1,000) of the base complex before supporting a lipid is shown in FIG. 5, and SEM observation images (×1,000) of the hemostatic materials E1 to E4 are shown in FIGS. 6 to 9, respectively.

For a further data set, the system named is guinea pig-derived PRP. Put plainly: Evaluation of platelet aggregation capacity of hemostatic material (in vitro), protein assay of attached platelets. It is filed as cell-based. The settings on record: lipid supported on the base part in place of DHSG, Asp-DHSG, Glu-DHSG and AG-DHSG. The method, then: From the hemostatic materials D1, D2, D3 and D4, a base part (fiber sheet part) supporting DHSG, Asp-DHSG, Glu-DHSG and AG-DHSG, respectively, was taken out. To a 12-well plate, the base part (fiber sheet part) that was taken out and 1 mL of guinea pig-derived PRP (2.0×10^5/μL) prepared by the abovementioned method were added. Thereafter, ADP ([…], 100 μL) that activates platelets was added, and after allowing to stand at room temperature for 5 minutes, the mixture was washed with 1 mL of DPBS twice. Thereafter, to dissolve platelets attached to the base part (fiber sheet part), 500 μL of 0.5% Triton X was added, followed by allowing to stand at room temperature for 1 hour to obtain a platelet lysate. To a 96-well plate, […] of the platelet lysate prepared by the abovementioned method and 150 μL of PIERCE (trademark) 660 nm Protein Assay Kit were added, followed by allowing to stand for 5 minutes. By measuring absorbance at 660 nm using a microplate reader, proteins were quantitatively determined, and the determination results were used as an index of the count of platelets which were not washed away and were attached to the fiber sheet. The results in FIG. 4 are relative values when the platelet count in using the hemostatic material D1 is regarded as 1. […]

On to `CCCCCCCCCCCCCCCCOC(=O)CCC(NC(=O)CCC(=O)NC(CCC(=O)NC(CC(=O)O)C(=O)O)C(=O)NC(CC(=O)O)C(=O)O)C(=O)OCCCCCCCCCCCCCCCC` (centres unmarked) [AG-DHSG], for which, in data set [1], the “Thickness of the lipid membrane” value worked out at 124 nm.

`CCCCCCCCCCCCCCCCOC(=O)CCC(NC(=O)CCC(=O)NC(CC(=O)O)C(=O)O)C(=O)OCCCCCCCCCCCCCCCC` (centres unmarked) [Asp-DHSG]: the “Thickness of the lipid membrane” value in data set [1] amounted to 153 nm.

Turning to `CCCCCCCCCCCCCCCCOC(=O)CCC(NC(=O)CCC(=O)O)C(=O)OCCCCCCCCCCCCCCCC` [DHSG, 1,5-Dihexadecyl-N-Succinyl-L-Glutamate, reference compound], the “Thickness of the lipid membrane” value in data set [1] came to 131 nm.

`CCCCCCCCCCCCCCCC(=O)OC[C@H](COP(=O)([O-])OCC[N+](C)(C)C)OC(=O)CCCCCCCCCCCCCCC` [DPPC, 1,2-dipalmitoyl-sn-glycero-3-phosphatidylcholine]: the “Platelets detected on the base part (fiber sheet part) as a result of washing” value in the data set with guinea pig-derived PRP was “no platelets were detected”.

For `CCCCCCCCCCCCCCCCOC(=O)CCC(NC(=O)CCC(=O)NC(CCC(=O)O)C(=O)O)C(=O)OCCCCCCCCCCCCCCCC` (centres unmarked) [Glu-DHSG], the “Thickness of the lipid membrane” value in data set [1] stood at 187 nm.
